# Target: mTOR/GbL/Raptor (mTORC1) (Homo sapiens, UniProt P42345)
# Experiment: mTOR/GbL/Raptor (mTORC1) ELISA assay
# Format: biochemical
# Conditions: phosphorylation of 4E-BP1; 0.2 nM mTORC1, 10 μM ATP; read-out: IC50 in this assay (mTORC1 ELISA)
# Summary of the method: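 ELISA read-out: phospho-4E-BP1 captured on Ni-chelate plates and detected with anti-phospho antibody plus HRP-anti-IgG luminescence. The kinase step ran 120 min at ambient temperature with 0.2 nM human mTORC1, 10 µM ATP, 50 nM His-4E-BP1, 10 mM MnCl2, pH 7.2 HEPES.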
row,SMILES,IC50 [nM]
1,"CCCc1nc2ccc(-c3ccc4c(c3)CN(c3ccnc5ccccc35)CCO4)cc2[nH]1 [Example 197, 7-(2-propyl-1H-benzimidazol-6-yl)-4-quinolin-4-yl-2,3,4,5-tetrahydro-1,4-benzoxazepine]",1000 to 2000
2,"c1ccc2c(N3CCOc4ccc(-c5ccc6nc(C7CCCCC7)[nH]c6c5)cc4C3)ccnc2c1 [Example 200, 7-(2-cyclohexyl-1H-benzimidazol-6-yl)-4-quinolin-4-yl-2,3,4,5-tetrahydro-1,4-benzoxazepine]",1000 to 2000
3,"CC(C)c1nc2ccc(-c3ccc4c(c3)CN(c3ccnc5ccccc35)CCO4)cc2[nH]1 [Example 203, 7-[2-(1-methylethyl)-1H-benzimidazol-6-yl]-4-quinolin-4-yl-2,3,4,5-tetrahydro-1,4-benzoxazepine]",1000 to 2000
4,"CSc1nc2ccc(-c3ccc4c(c3)CN(c3ccnc5ccccc35)CCO4)cc2[nH]1 [Example 207, 7-[2-(methylthio)-1H-benzimidazol-6-yl]-4-quinolin-4-yl-2,3,4,5-tetrahydro-1,4-benzoxazepine]",50 to 250
5,"CCNc1nc2ccc(-c3ccc4c(c3)CN(c3ccnc5ccccc35)CCO4)cc2[nH]1 [Example 208, N-ethyl-6-(4-quinolin-4-yl-2,3,4,5-tetrahydro-1,4-benzoxazepin-7-yl)-1H-benzimidazol-2-amine]",50 to 250
6,"CC(C)Nc1nc2ccc(-c3ccc4c(c3)CN(c3ccnc5ccccc35)CCO4)cc2[nH]1 [Example 209, N-(1-methylethyl)-6-(4-quinolin-4-yl-2,3,4,5-tetrahydro-1,4-benzoxazepin-7-yl)-1H-benzimidazol-2-amine]",≥ 2000
7,"CCN1CCc2c(ncnc2N2CCOc3ccc(-c4ccc5nc(C)[nH]c5c4)cc3C2)C1 [Example 211, 4-(7-ethyl-5,6,7,8-tetrahydropyrido[3,4-d]pyrimidin-4-yl)-7-(2-methyl-1H-benzimidazol-6-yl)-2,3,4,5-tetrahydro-1,4-benzoxazepine]",1000 to 2000
8,"Cc1nc2c(C)cc(-c3ccc4c(c3)CN(c3ncnc5cccnc35)CCO4)cc2[nH]1 [Example 214, 7-(2,4-dimethyl-1H-benzimidazol-6-yl)-4-pyrido[3,2-d]pyrimidin-4-yl-2,3,4,5-tetrahydro-1,4-benzoxazepine]",250 to 1000
9,"CC1(C)CCc2ncnc(N3CCOc4ccc(-c5ccc6nc(NCCF)[nH]c6c5)cc4C3)c2C1 [Example 215, 6-[4-(6,6-dimethyl-5,6,7,8-tetrahydroquinazolin-4-yl)-2,3,4,5-tetrahydro-1,4-benzoxazepin-7-yl]-N-(2-fluoroethyl)-1H-benzimidazol-2-amine]",≤ 10
10,"Cc1ncnc(N2CCOc3ccc(-c4cc5[nH]c(N)nc5cn4)cc3C2)c1Cc1ccc(F)cc1 [Example 216, 6-(4-{5-[(4-fluorophenyl)merthyl]-6-methylpyrimidin-4-yl}-2,3,4,5-tetrahydro-1,4-benzoxazepin-7-yl)-1H-imidazo[4,5-c]pyridin-2-amine]",10 to 50
11,"Cc1ncnc(N2CCOc3ccc(-c4cnc5sc(N)nc5c4)cc3C2)c1Cc1ccc(F)cc1 [Example 217, 6-(4-{5-[(4-fluorophenyl)methyl]-6-methylpyrimidin-4-yl}-2,3,4,5-tetrahydro-1,4-benzoxazepin-7-yl)[1,3]thiazolo[5,4-b]pyridin-2-amine]",≤ 10
12,"Cc1ccc2ncnc(N3CCOc4ccc(-c5cnc6nc(N)[nH]c6c5)cc4C3)c2c1 [Example 218, 6-[4-(6-methylquinazolin-4-yl)-2,3,4,5-tetrahydro-1,4-benzoxazpin-7-yl]-1H-imidazo[4,5-b]pyridin-2-amine]",≤ 10
13,"CC1(C)CCc2ncnc(N3CCOc4ccc(-c5cnc6nc[nH]c6c5)cc4C3)c2C1 [Example 221, 4-(6,6-dimethyl-5,6,7,8-tetrahydroquinazolin-4-yl)-7-(1H-imidazo[4,5-b]pyridin-6-yl)-2,3,4,5-tetrahydro-1,4-benzoxazepine]",≤ 10
14,"CC1(C)CCc2ncnc(N3CCOc4ccc(-c5cnc6[nH]c(C7CC7)nc6c5)cc4C3)c2C1 [Example 224, 7-(2-cyclopropyl-3H-imidazo[4,5-b]pyridin-6-yl)-4-(6,6-dimethyl-5,6,7,8-tetrahydroquinazolin-4-yl)-2,3,4,5-tetrahydro-1,4-benzoxazepine]",≤ 10
15,"CCCc1nc2cc(-c3ccc4c(c3)CN(c3ncnc5c3CC(C)(C)CC5)CCO4)cnc2[nH]1 [Example 225, 4-(6,6-dimethyl-5,6,7,8-tetrahydroquinazolin-4-yl)-7-(2-propyl-3H-imidazo[4,5-b]pyridin-6-yl)-2,3,4,5-tetrahydro-1,4-benzoxazepine]",≤ 10
16,"Nc1ccc(-c2ccc3c(c2)CN(c2ccnc4ccccc24)CCO3)cn1 [Example 226, 5-(4-quinolin-4-yl-2,3,4,5-tetrahydro-1,4-benzoxazepin-7-yl)pyridin-2-amine]",10 to 50
17,"Nc1nc2ncc(-c3ccc4c(c3)CN(c3ncnc5cccnc35)CCO4)cc2[nH]1 [Example 227, 6-(4-pyrido[3,2-d]pyrimidin-4-yl-2,3,4,5-tetrahydro-1,4-benzoxazepin-7-yl)-1H-imidazo[4,5-b]pyridin-2-amine]",50 to 250
18,"CCNc1nc2ccc(-c3ccc4c(c3)CN(c3nc(C)nc5ccccc35)CCO4)cc2[nH]1 [Example 228, N-ethyl-6-[4-(2-methylquinazolin-4-yl)-2,3,4,5-tetrahydro-1,4-benzoxazepin-7-yl)-1H-benzimidazol-2-amine]",50 to 250
19,"CC1(C)CCc2ncnc(N3CCOc4ccc(-c5cnc6[nH]c(C(F)F)nc6c5)cc4C3)c2C1 [Example 229, 7-[2-(difluoromethyl)-3H-imidazo[4,5-b]pyridin-6-yl]-4-(6,6-dimethyl-5,6,7,8-tetrahydroquinazolin-4-yl)-2,3,4,5-tetrahydro-1,4-benzoxazepine]",≤ 10
20,"CCNc1nc2ncc(-c3ccc4c(c3)CN(c3ccncn3)CCO4)cc2[nH]1 [Example 230, N-ethyl-6-(4-pyrimidin-4-yl-2,3,4,5-tetrahydro-1,4-benzoxazepin-7-yl)-1H-imidazo[4,5-b]pyridin-2-amine]",50 to 250
21,"Nc1nc2ccc(-c3ccc4c(c3)CN(c3nc(-c5ccccc5)nc5ccccc35)CCO4)cc2[nH]1 [Example 233, 6-[4-(2-phenylquinazolin-4-yl)-2,3,4,5-tetrahydro-1,4-benzoxazepin-7-yl]-1H-benzimidazol-2-amine]",50 to 250
22,"CC1(C)CCc2ncnc(N3CCOc4ccc(-c5cnc6[nH]c(CF)nc6c5)cc4C3)c2C1 [Example 238, 4-(6,6-dimethyl-5,6,7,8-tetrahydroquinazolin-4-yl)-7-[2-(fluoromethyl)-3H-imidazo[4,5-b]pyridin-6-yl]-2,3,4,5-tetrahydro-1,4-benzoxazepine]",≤ 10

# Now from value to molecule:
row,IC50 [nM],SMILES
1,250 to 1000,"c1ccc2c(N3CCOc4ccc(-c5ccc6nc(C7CC7)[nH]c6c5)cc4C3)ccnc2c1 [Example 199, 7-(2-cyclopropyl-1H-benzimidazol-6-yl)-4-quinolin-4-yl-2,3,4,5-tetrahydro-1,4-benzoxazepine]"
2,1000 to 2000,"c1ccc2c(N3CCOc4ccc(-c5ccc6nc(C7CNC7)[nH]c6c5)cc4C3)ccnc2c1 [Example 201, 7-(2-azetidin-3-yl-1H-benzimidazol-6-yl)-4-quinolin-4-yl-2,3,4,5-tetrahydro-1H-benzoxazepine]"
3,250 to 1000,"c1ccc2c(N3CCOc4ccc(-c5ccc6nc(C7CCCCN7)[nH]c6c5)cc4C3)ccnc2c1 (stereo not drawn) [Example 202, 7-(2-piperidin-2-yl-1H-benzimidazol-6-yl)-4-quinolin-4-yl-2,3,4,5-tetrahydro-1,4-benzoxazepine]"
4,250 to 1000,"COC(=O)Nc1nc2ncc(-c3ccc4c(c3)CN(c3ccnc5cc(OC)c(OC)cc35)CCO4)cc2[nH]1 [Example 210, methyl (6-{4-[6,7-bis(methyloxy)quinolin-4-yl]-2,3,4,5-tetrahydro-1,4-benzoxazepin-7-yl}-1H-imidazo[4,5-b]pyridin-2-yl)carbamate]"
5,≤ 10,"CC1(C)CCc2ncnc(N3CCOc4ccc(-c5ccc(-c6ncc[nH]6)cc5)cc4C3)c2C1 [Example 213, 4-(6,6-dimethyl-5,6,7,8-tetrahydroquinazolin-4-yl)-7-[4-(1H-imidazol-2-yl)phenyl]-2,3,4,5-tetrahydro-1,4-benzoxazepine]"
6,≤ 10,"CCc1nc2cc(-c3ccc4c(c3)CN(c3ncnc5c3CC(C)(C)CC5)CCO4)cnc2[nH]1 [Example 220, 4-(6,6-dimethyl-5,6,7,8-tetrahydroquinazolin-4-yl)-7-(2-ethyl-3H-imidazo[4,5-b]pyridin-6-yl)-2,3,4,5-tetrahydro-1,4-benzoxazepine]"
7,250 to 1000,Cn1ccc2cc(-c3ccc4c(c3)CN(c3ccnc5ccccc35)CCO4)cnc21 [Example 222]
8,≤ 10,"Cc1nc2ncc(-c3ccc4c(c3)CN(c3ncnc5c3CC(C)(C)CC5)CCO4)cc2[nH]1 [Example 234, 4-(6,6-dimethyl-5,6,7,8-tetrahydroquinazolin-4-yl)-7-(2-methyl-1H-imidazo[4,5-b]pyridin-6-yl)-2,3,4,5-tetrahydro-1,4-benzoxazepine]"
9,≤ 10,"CC1(C)CCc2ncnc(N3CCOc4ccc(-c5ccc6nc(N)[nH]c6c5)cc4C3)c2C1 [Example 236, 6-[4-(6,6-dimethyl-5,6,7,8-tetrahydroquinazolin-4-yl)-2,3,4,5-tetrahydro-1,4-benzoxazepin-7-yl]-1H-benzimidazol-2-amine]"
10,250 to 1000,"CCNc1nc2ccc(-c3ccc4c(c3)CN(c3nc(C)nc5cc(OC)ccc35)CCO4)cc2[nH]1 [Example 237, N-ethyl-6-{4-[2-methyl-7-(methyloxy)quinazolin-4-yl]-2,3,4,5-tetrahydro-1,4-benzoxazepin-7-yl}-1H-benzimidazol-2-amine]"
11,50 to 250,"CNC(=O)c1ccc(-c2ccc3c(c2)CN(c2ccnc4ccccc24)CCO3)cc1 [Example 239, N-methyl-4-(4-quinolin-4-yl-2,3,4,5-tetrahydro-1,4-benzoxazepin-7-yl)benzamide]"
